Results published in US20200016145A1, “TREATMENT OF CHRONIC TRAUMATIC ENCEPHALOPATHY” (CTEC LLC, priority 2018, published 2020).
Entries after “also recorded” stand apart in the source; their conditions may differ.

Assays:
ER stress = experiment: ER stress, tau kinase and apoptosis markers after blast-induced TBI (western blot, immunohistochemistry, PCR); format: in vivo, Sprague Dawley rat
Description: An animal model was used to evaluate TBI, and neuropathological specimens (donated by the Brain Injury Research Institute brain bank) were used to evaluate CTE. TBI was blast induced in the animal model. […] Salubrinal was administered to the animal model following the injury. The ER stress was modulated by the use of salubrinal. […] This example assessed the successful targeting of ER stress after TBI. […] A Sprague Dawley rat was positioned in a protective tube to prevent injury to the peripheral organs, and an acceleration wave was generated and allowed to collide with the skull of the rat. The intensity of the injury was adjusted in a step-wise manner by decreasing or increasing the thickness of the membrane that exploded with pressurized nitrogen gas. An injury paradigm of 50 PSI was selected, which correlates with human concussion, that is the most common type of injury linked to CTE. In FIG. 4, the peak in plot D illustrates the 50 PSI pressure wave. The Sprague Dawley rats were given either one injury, or six injuries over a two-week period. Various time points of sacrifice were chosen to look at markers of ER stress and tauopathy. Salubrinal was administered to the rats after injury to target ER stress. Salubrinal was administered by IP injection 30 minutes after injury using a dose of 1 mg/kg. […] Salubrinal-mediated CHOP reduction may be associated with preservation of the pro-form of Caspase-12 that when cleaved, has been associated with ER-mediated apoptosis or cell death. Reducing CHOP with salubrinal also may result in reduction of sustained oxidative stress and neuro-inflammation. LICOR western blot protocols, IHC world immunohistochemistry protocols, and Applied Biosystems PCR protocols were used for the assays. ANOVA was used for analysis with p<0.05 being statistically significant. *=p<0.05, **=p<0.01, ***=p<0.001. When the drug group was compared to the injury group #=p<0.05, ##=p<0.01, ###=p<0.001.

Sprague Dawley rat [1] = experiment: Morris water maze after blast injury (cognitive performance); format: in vivo
Description: (§1) The administration of salubrinal prior to bTBI was also evaluated in an animal model. Use of the salubrinal ameliorated neuropsychiatric deficits in the form of impulsive-like behavior as measured by the elevated plus maze test/protocol, and spatial memory as measured by the Morris water maze test/protocol. This example assessed the successful targeting of ER stress after TBI. […] A Sprague Dawley rat was positioned in a protective tube to prevent injury to the peripheral organs, and an acceleration wave was generated and allowed to collide with the skull of the rat. The intensity of the injury was adjusted in a step-wise manner by decreasing or increasing the thickness of the membrane that exploded with pressurized nitrogen gas. An injury paradigm of 50 PSI was selected, which correlates with human concussion, that is the most common type of injury linked to CTE. In FIG. 4, the peak in plot D illustrates the 50 PSI pressure wave. The Sprague Dawley rats were given either one injury, or six injuries over a two-week period. Various time points of sacrifice were chosen to look at markers of ER stress and tauopathy. In this example, the effect of targeting (turning off) ER stress on improved behavior was studied by utilizing the injury models and standard protocols for Morris water maze and elevated plus maze. The Morris water maze detected deficits in cognitive performance whereas the elevated plus maze evaluated impulsive-like behavior. […] ANOVA was used for statistical analysis with *=p<0.05, **=p<0.01, ***=p<0.001. When drug was compared to injury group #=p<0.05, ##=p<0.01, ###=p<0.001.

neuroinflammation = experiment: Neuroinflammation markers after blast injury; format: in vivo, Sprague Dawley rat
Source text: This example assessed the successful targeting of ER stress after TBI. […] A Sprague Dawley rat was positioned in a protective tube to prevent injury to the peripheral organs, and an acceleration wave was generated and allowed to collide with the skull of the rat. The intensity of the injury was adjusted in a step-wise manner by decreasing or increasing the thickness of the membrane that exploded with pressurized nitrogen gas. An injury paradigm of 50 PSI was selected, which correlates with human concussion, that is the most common type of injury linked to CTE. In FIG. 4, the peak in plot D illustrates the 50 PSI pressure wave. The Sprague Dawley rats were given either one injury, or six injuries over a two-week period. Various time points of sacrifice were chosen to look at markers of ER stress and tauopathy. Salubrinal was administered to the rats after injury to target ER stress. Salubrinal was administered by IP injection 30 minutes after injury using a dose of 1 mg/kg. […] Salubrinal-mediated CHOP reduction may be associated with preservation of the pro-form of Caspase-12 that when cleaved, has been associated with ER-mediated apoptosis or cell death. Reducing CHOP with salubrinal also may result in reduction of sustained oxidative stress and neuro-inflammation. LICOR western blot protocols, IHC world immunohistochemistry protocols, and Applied Biosystems PCR protocols were used for the assays. ANOVA was used for analysis with p<0.05 being statistically significant. *=p<0.05, **=p<0.01, ***=p<0.001. When the drug group was compared to the injury group #=p<0.05, ##=p<0.01, ###=p<0.001. […] Measured components included NF kappa B (plot A), inducible nitric oxide synthase (iNOS) (plot B), interleukin 1 beta (IL-1β) (plot C), and tumor necrosis factor alpha (TNFα) (plot D). As shown in plots A, C and D, salubrinal administration (sTBI+SAL) reduced pro-inflammatory markers NFκB, IL-1β and TNFα, respectively.

Sprague Dawley rat [2] = experiment: Elevated plus maze after blast injury (impulsive-like behavior); format: in vivo
Description: as §1

oxidative stress = experiment: Oxidative stress markers after blast injury; format: in vivo, Sprague Dawley rat
Source text: This example assessed the successful targeting of ER stress after TBI. […] A Sprague Dawley rat was positioned in a protective tube to prevent injury to the peripheral organs, and an acceleration wave was generated and allowed to collide with the skull of the rat. The intensity of the injury was adjusted in a step-wise manner by decreasing or increasing the thickness of the membrane that exploded with pressurized nitrogen gas. An injury paradigm of 50 PSI was selected, which correlates with human concussion, that is the most common type of injury linked to CTE. In FIG. 4, the peak in plot D illustrates the 50 PSI pressure wave. The Sprague Dawley rats were given either one injury, or six injuries over a two-week period. Various time points of sacrifice were chosen to look at markers of ER stress and tauopathy. Salubrinal was administered to the rats after injury to target ER stress. Salubrinal was administered by IP injection 30 minutes after injury using a dose of 1 mg/kg. […] Salubrinal-mediated CHOP reduction may be associated with preservation of the pro-form of Caspase-12 that when cleaved, has been associated with ER-mediated apoptosis or cell death. Reducing CHOP with salubrinal also may result in reduction of sustained oxidative stress and neuro-inflammation. LICOR western blot protocols, IHC world immunohistochemistry protocols, and Applied Biosystems PCR protocols were used for the assays. ANOVA was used for analysis with p<0.05 being statistically significant. *=p<0.05, **=p<0.01, ***=p<0.001. When the drug group was compared to the injury group #=p<0.05, ##=p<0.01, ###=p<0.001. […] Measured components included carbonyls (plot A), superoxide (plot B), reactive oxygen species (ROS) (plot C), and NADPH oxidase 4 (NOX4) (plot D). As shown in A, B and […], administration of salubrinal (sTBI+SAL) reduced protein carbonyls, super-oxides, and total oxidative stress production, respectively.

[3] = bTBI animal model, administered following the injury
[4] = post-blast administration (FIG. 6)

SMILES: CC/C=C\C/C=C\C/C=C\C/C=C\C/C=C\C/C=C\CCC(=O)O [DHA]
- ER stress activator BiP (ER stress; three weeks following repetitive injury (FIG. 10 plot A)): inhibited
- tau kinase GSK3β (ER stress; three weeks following repetitive injury (FIG. 10 plot B)): inhibited
- cognitive learning, Morris water maze (Sprague Dawley rat [1]; after injury (FIG. 13 panel D)): improved
- retention of a learned event, probe trial (Sprague Dawley rat [1]; after injury (FIG. 13 panel E)): enhanced

SMILES: O=C(/C=C/c1ccccc1)NC(NC(=S)Nc1cccc2cccnc12)C(Cl)(Cl)Cl (stereo not drawn) [salubrinal, 3-phenyl-N-[2,2,2-trichloro-1-[[(8-quinolinylamino)thioxomethyl]amino]ethyl]-2-propenamide]
- GSK3β activity (ER stress; 1 mg/kg IP 30 minutes after injury): reduced
- CHOP (marker of ER stress) (ER stress; 1 mg/kg IP 30 minutes after injury, 24 hours after a single blast injury (FIG. 5 plot C)): prevented the surge; also recorded: significantly reduced
- GADD34 (marker of ER stress) (ER stress; 1 mg/kg IP 30 minutes after injury, 24 hours after a single blast injury (FIG. 5 plot E)): inhibited; also recorded: significantly reduced
- ER stress (ER stress; [3]): modulated
- markers of neural degeneration and apoptosis (ER stress; [3]): reducing
- CHOP by immunohistochemistry (ER stress; [4]): significantly reduced
- cleaved Caspase 3 (pro-apoptotic marker) by immunohistochemistry (ER stress; [4]): reduced
- neuropsychiatric deficits: spatial memory, Morris water maze (Sprague Dawley rat [1]; administered prior to bTBI): ameliorated
- NFκB (pro-inflammatory marker) (neuroinflammation; 24 hours after injury (FIG. 8 plot A)): reduced
- IL-1β (pro-inflammatory marker) (neuroinflammation; 24 hours after injury (FIG. 8 plot C)): reduced
- TNFα (pro-inflammatory marker) (neuroinflammation; 24 hours after injury (FIG. 8 plot D)): reduced
- impulsive-like behavior, time spent in the open arm of the elevated plus maze (Sprague Dawley rat [2]; administered after injury, 72 hours after the repeat injury (FIG. 12)): reduced
- impulsive-like behavior, time in the open arm of the elevated plus maze (Sprague Dawley rat [2]; administered after injury, seven days after a single injury (FIG. 11)): reduced
- neuropsychiatric deficits: impulsive-like behavior, elevated plus maze (Sprague Dawley rat [2]; administered prior to bTBI): ameliorated
- protein carbonyls (oxidative stress; 24 hours after injury (FIG. 7 plot A)): reduced
- super-oxides (oxidative stress; 24 hours after injury (FIG. 7 plot B)): reduced
- total oxidative stress production (oxidative stress; 24 hours after injury (FIG. 7 plot D)): reduced
